The values below are quoted from earlier work in patent US7442834B2, “Process suitable for industrial scale production of gabapentin” (priority 2006, dated 2008).

The conditions of data set [1]: from U.S. Pat. No. 6,518,456.
The conditions of data set [2]: in vivo.

Consider `NCC1(CC(=O)O)CCCCC1` [gabapentin (I), 1-(aminomethyl)-1-cyclohexaneacetic acid], for which the “isoelectric point (pH)” value in data set [1] is 7.1-7.2. For the same molecule, the “LD50 (cytotoxicity)” value in data set [2] was above 8000 mg/kg.

`O=C1CC2(CCCCC2)CN1` [IV, 3,3-pentamethylenebutyrolactam]: the “LD50 (cytotoxicity)” value in data set [2] is reported as 300 mg/kg.
